Test results from ChEMBL document CHEMBL2417443, “Efficient synthesis and antiproliferative activity of novel thioether-substituted flavonoids” (Eur J Med Chem, 2013).

Legend:
Type in all cases: functional, cell-based
HeLa = test: Cytotoxicity against human HeLa cells after 72 hrs by MTT assay
[1] = Cytotoxicity against human MDA-MB-435S cells after 72 hrs by MTT assay
SW480 = test: Cytotoxicity against human SW480 cells after 72 hrs by MTT assay; conditions: SW480, 72 h
[2] = Cytotoxicity against human LM7 cells after 72 hrs by MTT assay; conditions: LM7, 72 h
MCF7 = test: Cytotoxicity against human MCF7 cells after 72 hrs by MTT assay; conditions: MCF7, 72 h
HEp-2 = test: Cytotoxicity against human Hep2 cells after 72 hrs by MTT assay; conditions: HEp-2, 72 h

Row | SMILES | IC50 (HeLa) | IC50 [1] | IC50 (SW480) | IC50 [2] | IC50 (MCF7) | IC50 (HEp-2)
1 | Cc1cc(C)nc(SCn2cnc3c(Cl)cccc3c2=O)n1 | > 25 µM | > 25 µM | > 25 µM | > 25 µM | > 25 µM | > 25 µM
2 | O=c1c2cccc(Cl)c2ncn1CSc1nc2ccccc2s1 | > 25 µM | > 25 µM | > 25 µM | > 25 µM | > 25 µM | > 25 µM
3 | Cc1nnc(SCc2coc3ccc(Cl)cc3c2=O)s1 | 9.7 µM | 2.2 µM | 3.2 µM | 7.6 µM | 13.4 µM | 4.2 µM
4 | Cc1cc(C)n2nc(SCc3nnc(SCc4coc5ccccc5c4=O)n3N)nc2n1 | > 25 µM | 3 µM | 3.6 µM | 1.9 µM | > 25 µM | 7.1 µM
5 | COC(=O)Nc1ccc2c(CSc3nnc(CSc4nc(C)cc(C)n4)s3)cc(=O)oc2c1 | 15.9 µM | 4.6 µM | 3.7 µM | 2.3 µM | 9.4 µM | 2.1 µM
6 | Nc1nnc(SCc2coc3ccccc3c2=O)s1 | > 25 µM | 0.95 µM | > 25 µM | 0.73 µM | > 25 µM | 1.5 µM
7 | Cc1nnc(SCc2cc(=O)c3ccccc3o2)o1 | > 25 µM | > 25 µM | > 25 µM | > 25 µM | > 25 µM | > 25 µM
8 | Cc1nnc(Sc2coc3ccccc3c2=O)s1 | > 50 µM | > 50 µM | > 50 µM | > 50 µM | > 50 µM | > 50 µM
9 | Cc1ccc2oc(CSc3nc4ccccc4s3)cc(=O)c2c1 | > 25 µM | > 25 µM | > 25 µM | > 25 µM | > 25 µM | > 25 µM
10 | Cc1nnc(Sc2c(C)oc3ccccc3c2=O)o1 | > 50 µM | > 50 µM | > 50 µM | > 50 µM | > 50 µM | > 50 µM
11 | Cc1nnc(SCc2cc(=O)c3cc(Cl)ccc3o2)o1 | > 25 µM | > 25 µM | > 25 µM | > 25 µM | > 25 µM | > 25 µM
12 | Cc1cc(C)nc(SCn2cnc3ccccc3c2=O)n1 | > 25 µM | > 25 µM | > 25 µM | > 25 µM | > 25 µM | > 25 µM
13 | O=c1c(CSc2nc3ccccc3o2)coc2ccccc12 | > 25 µM | 1.4 µM | 3.2 µM | 5.3 µM | 4.8 µM | 2.7 µM
14 | O=c1c2ccccc2ncn1CSc1nc2ccccc2s1 | > 25 µM | > 25 µM | > 25 µM | > 25 µM | > 25 µM | > 25 µM
15 | Cc1cc(C)nc(SCc2cc(=O)c3ccccc3o2)n1 | > 25 µM | > 25 µM | > 25 µM | > 25 µM | > 25 µM | > 25 µM
16 | Cc1cc(C)n2nc(SCc3nnc(SCc4cc(=O)oc5c4ccc4ccccc45)s3)nc2n1 | > 25 µM | > 25 µM | > 25 µM | > 25 µM | > 25 µM | > 25 µM
17 | Cc1ccc2oc(CSc3nc4nc(C)cc(C)n4n3)cc(=O)c2c1 | > 25 µM | > 25 µM | > 25 µM | > 25 µM | > 25 µM | > 25 µM
18 | Cc1cc(O)cc2oc(=O)cc(CSc3nc4ccccc4[nH]3)c12 | > 25 µM | > 25 µM | > 25 µM | > 25 µM | > 25 µM | > 25 µM
19 | Cc1cc(C)n2nc(SCc3nnc(SCc4cc(=O)c5ccccc5o4)n3-c3ccccc3)nc2n1 | > 25 µM | > 25 µM | > 25 µM | > 25 µM | > 25 µM | > 25 µM
20 | O=c1cc(CSc2nc3ccccc3o2)c2ccc(O)c(O)c2o1 | > 25 µM | > 25 µM | > 25 µM | > 25 µM | > 25 µM | > 25 µM
21 | Cc1cc(C)n2nc(SCn3cnc4c(Cl)cccc4c3=O)nc2n1 | > 25 µM | > 25 µM | > 25 µM | > 25 µM | > 25 µM | > 25 µM
22 | Nc1nnc(SCc2cc(=O)oc3c2ccc2ccccc23)s1 | > 25 µM | > 25 µM | > 25 µM | > 25 µM | > 25 µM | > 25 µM
23 | Cc1cc(C)n2nc(SCc3nnc(SCc4cc(=O)c5ccccc5o4)n3N)nc2n1 | > 25 µM | > 25 µM | > 25 µM | > 25 µM | > 25 µM | > 25 µM
24 | Cc1ccc2oc(CSc3nnc(N)s3)cc(=O)c2c1 | > 25 µM | > 25 µM | > 25 µM | > 25 µM | > 25 µM | > 25 µM
25 | O=c1cc(CSc2nc3ccccc3s2)oc2ccc(Cl)cc12 | > 25 µM | > 25 µM | > 25 µM | > 25 µM | > 25 µM | > 25 µM

Row | SMILES | IC50 (HeLa) | IC50 [1] | IC50 (SW480) | IC50 [2] | IC50 (MCF7) | IC50 (HEp-2)
26 | Nc1nc(SCc2coc3ccccc3c2=O)n[nH]1 | > 25 µM | 8.3 µM | 21.4 µM | 16.9 µM | > 25 µM | 21.3 µM
27 | Cc1cc(C)n2nc(SCc3nnc(SCc4cc(=O)c5ccccc5o4)o3)nc2n1 | > 25 µM | > 25 µM | > 25 µM | > 25 µM | > 25 µM | > 25 µM
28 | Cc1cc(C)nc(SCc2cc(=O)c3cc(Cl)ccc3o2)n1 | > 25 µM | > 25 µM | > 25 µM | > 25 µM | > 25 µM | > 25 µM
29 | Nc1nnc(SCc2cc(=O)c3ccccc3o2)s1 | > 25 µM | > 25 µM | > 25 µM | > 25 µM | > 25 µM | > 25 µM
30 | O=c1c2cccc(Cl)c2ncn1CSc1nc2ccccc2o1 | > 25 µM | > 25 µM | > 25 µM | > 25 µM | > 25 µM | > 25 µM
31 | Cc1cc(C)n2nc(SCc3nnc(SCc4coc5ccccc5c4=O)n3-c3ccccc3)nc2n1 | > 25 µM | 2.9 µM | 12.4 µM | 16.6 µM | > 25 µM | 22.1 µM
32 | Nc1nnc(SCc2cc(=O)c3cc(Cl)ccc3o2)s1 | > 25 µM | > 25 µM | > 25 µM | > 25 µM | > 25 µM | > 25 µM
33 | Cc1nnc(SCc2coc3ccc(Cl)cc3c2=O)o1 | 3.2 µM | 3.3 µM | 3.5 µM | 8.7 µM | 5 µM | 6.4 µM
34 | O=c1cc(SCn2cnc3ccccc3c2=O)sc2ccccc12 | 6.3 µM | 4.1 µM | 8.5 µM | 17 µM | 5.3 µM | 5.9 µM
35 | Cc1ccc2oc(CSc3nnc(C)o3)cc(=O)c2c1 | > 25 µM | > 25 µM | > 25 µM | > 25 µM | > 25 µM | > 25 µM
36 | O=c1c2ccccc2ncn1CSc1nc2ccccc2o1 | > 25 µM | > 25 µM | > 25 µM | > 25 µM | > 25 µM | > 25 µM
37 | Cc1ccc2oc(CSc3nnc(C)s3)cc(=O)c2c1 | > 25 µM | > 25 µM | > 25 µM | > 25 µM | > 25 µM | > 25 µM
38 | Cc1cc(C)n2nc(SCc3nnc(SCc4cc(=O)oc5cc(O)cc(C)c45)s3)nc2n1 | > 25 µM | > 25 µM | > 25 µM | > 25 µM | > 25 µM | > 25 µM
39 | Cc1cc(C)n2nc(SCc3cc(=O)c4cc(Cl)ccc4o3)nc2n1 | > 25 µM | > 25 µM | > 25 µM | > 25 µM | > 25 µM | > 25 µM
40 | Cc1cc(C)nc(SCc2coc3ccccc3c2=O)n1 | > 25 µM | > 25 µM | > 25 µM | > 25 µM | > 25 µM | 55.1 µM
41 | Cc1cc(C)n2nc(SCc3nnc(SCc4coc5ccccc5c4=O)s3)nc2n1 | > 25 µM | 1.1 µM | 1.5 µM | 2.5 µM | 9.5 µM | 5.3 µM
42 | Cc1nnc(SCc2cc(=O)c3cc(Cl)ccc3o2)s1 | > 25 µM | > 25 µM | > 25 µM | > 25 µM | > 25 µM | > 25 µM
43 | Nc1nnc(SCn2cnc3ccccc3c2=O)s1 | > 25 µM | > 25 µM | > 25 µM | > 25 µM | > 25 µM | > 25 µM
44 | Cc1ccc2oc(CSc3nc(C)cc(C)n3)cc(=O)c2c1 | > 25 µM | > 25 µM | > 25 µM | > 25 µM | > 25 µM | > 25 µM
45 | Cc1cc(O)cc2oc(=O)cc(CSc3nc4ccccc4o3)c12 | > 25 µM | > 25 µM | > 25 µM | > 25 µM | > 25 µM | > 25 µM
46 | O=c1cc(SCn2cnc3c(Cl)cccc3c2=O)sc2ccccc12 | > 25 µM | > 25 µM | > 25 µM | > 25 µM | > 25 µM | > 25 µM
47 | Cc1cc(C)n2nc(SCc3nnc(SCc4cc(=O)c5ccccc5o4)s3)nc2n1 | > 25 µM | > 25 µM | > 25 µM | > 25 µM | > 25 µM | > 25 µM
48 | O=c1cc(CSc2nc3ccccc3s2)oc2ccccc12 | > 25 µM | > 25 µM | > 25 µM | > 25 µM | > 25 µM | > 25 µM
49 | O=c1[nH]cc(F)c(=O)[nH]1 [FLUOROURACIL] | 3.4 µM | – | – | 18.6 µM | 3.6 µM | –
